Results reported in US20110092453A1, “TREATMENTS AND PREVENTION OF HYDROCEPHALUS” (THE UNIVERSITY OF MANCHESTER, priority 2007, published 2011).

Columns and labels:
[1] = system: germinal epithelium cells; conditions: in the presence of 10% HC CSF; n=3
[2] = human population, supplementation of female diets; data from reports; cited from earlier work
H-Tx model of EOHC = assay: In vivo supplementation of mothers, numbers of affected HC fetuses; parameters: species or system rat; conditions: long term: 2.5 mg/kg daily from 14 days prior to mating to day 20; saline controls 45%
Procedure: Mothers were injected daily with 2.5 mg/kg of the supplements folic acid or folinic acid or saline controls. Injections were started 14 days prior to mating and continued throughout pregnancy up to harvesting of the fetuses at day 20. Fetuses were harvested on Day20 of gestation and each fetus was scored as affected HC or normal. The percentage of normal or affected fetuses in each litter was then calculated and results were averaged across the 3 mothers (2 for saline treatment) and are plotted as shown, mean±SD.
Mothers were injected daily with 2.5 mg/kg of the supplements folic acid or folinic acid. Injections were started at E17 of the pregnancy and continued through the rest of the pregnancy up to harvesting of the fetuses at day 20. Fetuses were harvested on Day20 of gestation and each fetus was scored as affected HC or normal. The percentage of normal or affected fetuses in each litter was then calculated and results were averaged across the 3 mothers (2 for saline treatment) and are plotted as shown, mean±SD.
Timed pregnancies of H-Tx or Wistar rats were harvested from pregnant dams killed by intraperitoneal injection of sodium pentobarbitone. […]
Female rats were handled for one week prior to the start of the supplementation protocol to decrease handling stress. […] Stained sections were photographed on a Lecia DMLB photomicroscope and analysed using Metaview software. […]

[3] = Effect of supplementation on mother's weight through pregnancy; assay type: in vivo, rat; conditions: 2.5 mg/kg daily injection from 14 days prior to mating to day 20; no significant differences
Procedure: Mothers were injected daily with 2.5 mg/kg of the supplements folic acid or folinic acid or saline controls. Injections were started 14 days prior to mating and continued throughout pregnancy up to harvesting of the fetuses at day 20. Mothers were weighed at the same time each day and data converted to % of starting weight at day 0. Results were averaged across the 3 mothers (2 for saline treatment) and are plotted as shown mean±SD.
The hypothesis was tested further using the H-Tx model of EOHC. Mothers were injected daily with 2.5 mg/kg of the supplements folic acid (3 mothers-31 pups) or folinic acid (3 mothers-35 pups) or saline controls (2 mothers-20 pups). Injections were started 14 days prior to mating and continued throughout pregnancy up to harvesting of the fetuses at day 20.

SMILES | uptake, % of that in the absence of added CSF [1] [%] | effect on the incidence of HC [2] | incidence of HC (percentage of affected fetuses in the litter) (H-Tx model of EOHC) [%] | weight of the mothers compared to saline treated animals [3]
Nc1nc2ncc(CNc3ccc(C(=O)N[C@@H](CCC(=O)O)C(=O)O)cc3)nc2c(=O)[nH]1 [[^3H]-folic acid] | 53±13 | – | – | –
Nc1nc2ncc(CNc3ccc(C(=O)N[C@@H](CCC(=O)O)C(=O)O)cc3)nc2c(=O)[nH]1 [folic acid] | – | does not have any significant effect | 60 | slightly increased weight
